The target in one assay is T1, IDH1^R132C (Homo sapiens, UniProt O75874, R132C).
T1 construct: purchased not specified
The assay can be described thus: NADPH depletion assay, IDH1 R132C. The format is biochemical. The procedure, abridged: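 IDH1 R132C (2 nM) preincubated 15 min at RT with compound in Tris-HCl pH 7.6/MgCl2 buffer, then 60 min RT with NADPH and 0.14 mM alpha-ketoglutarate. Remaining NADPH read by diaphorase/resazurin fluorescence (Ex544/Em590).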

Another assay has as its system HT-1080 (IDH1^R132C). Briefly: Cellular 2-HG production assay, HT-1080. The format is cell-based. Conditions: Homo sapiens, HT-1080, 72 h, inhibition of 2HG production, 72 hr incubation, LC-MS/MS; read-out: HT1080 2-HG IC50. How it is done: Cell lines HT-1080 (commercially available) and U87-MG-IDH1^R132H (obtained in analoy to the procedure reported in J. Mol. Neurosci 2013, 50, 165-71) are maintained in E-MEM 10% FCS and incubated at 37° C. in a humidified 5% CO2 atmosphere. Stably transfected U87-MG cell lines are also supplemented with 500 μg/mL G418.
Cells are seeded into 96 well black flat bottom plates at a density of 500 cells/well in 100 μL complete medium. After 24 hr the medium is replaced with 200 uL of fresh medium and compounds (dissolved into DMSO) are administrated to the cells using D300E Digital Dispenser (Tecan).
After 72 hr of incubation 100 uL from each well are collected and used for 2HG (R(−)-2-hydroxyglutarate) quantification.
Levels of 2-HG in cell culture media are determined by LC-MS/MS. Cell supernatants (100 μL/well) are treated with 1 M aqueous trichloroacetic acid containing 130 μM of the internal standard 2-HG-d3 (20 μL/well) in a 96-well plate.
The plates are sealed, mildly vortexed for 60 minutes, centrifuged at 4,000 RPM for 15 minutes, placed in a refrigerated autosampler taking care not to shake them, and aliquots of the upper part of the samples are directly injected in the chromatographic system. Calibration standards are obtained by ten fold dilution of aqueous 2-HG stock solutions with blank cell culture medium and denatured exactly in the same way as described above for samples. Samples and standards are assayed for 2-HG by reversed phase chromatography on a C18 column eluted with aqueous 0.15% formic acid and briefly washed with 90% methanol at the end of the run. 2-HG is determined by negative ion electrospray ionization with the internal standard method on a triple quadrupole mass spectrometer monitoring the MRM transitions 147>129 (2-HG) and 150>132 (2-HG-d3). 2-HG inhibition was calculated by comparing treated versus control data using Assay Explore (Symyx) software, with IC50 determined using a sigmoidal fitting algorithm.

A further assay addresses T2, IDH2^R172K (Homo sapiens, UniProt P48735, R172K).
T2 construct: purchased not specified
T2 sequence (P48735 40-452 R172K): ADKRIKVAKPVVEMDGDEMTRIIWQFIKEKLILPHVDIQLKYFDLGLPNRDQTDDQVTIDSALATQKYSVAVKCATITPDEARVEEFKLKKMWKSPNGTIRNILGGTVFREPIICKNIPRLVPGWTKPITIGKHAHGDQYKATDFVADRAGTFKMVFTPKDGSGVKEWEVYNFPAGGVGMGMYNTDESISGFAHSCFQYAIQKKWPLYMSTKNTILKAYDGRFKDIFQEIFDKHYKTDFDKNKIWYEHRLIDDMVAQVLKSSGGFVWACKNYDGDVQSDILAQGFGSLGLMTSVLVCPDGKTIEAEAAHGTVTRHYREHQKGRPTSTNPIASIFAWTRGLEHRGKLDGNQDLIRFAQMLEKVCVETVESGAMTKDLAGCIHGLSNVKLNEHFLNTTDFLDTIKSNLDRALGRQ
Briefly: NADPH depletion assay, IDH2 R172K. The format is biochemical. How it is done:
IDH mutated enzyme activity converting alpha-ketoglutarate to 2-hydroxyglutaric acid is measured using a NADPH depletion assay. In the assay the remaining cofactor is measured at the end of the reaction with the addition of a catalytic excess of diaphorase and resazurin, to generate a fluorescent signal in proportion to the amount of NADPH remaining. IDH1 WT enzyme as well as mutated isoforms IDH1^R132H, IDH1^R132C, and IDH^2R172K enzymes are commercially available proteins (see e.g. Sino Biological, Abcam, Active Motif or Creative BioMart).
IDH1^R132H homodimer enzyme are diluted to 8 nM, in 10 μL of Assay Buffer (150 mM NaCl, 50 mM Tris-HCl pH 7.6, 10 mM MgCl2, 0.001% Triton X-100, 4 mM β-mercaptoethanol); 0.2 uL of test compound, previously serially diluted 1 to 3, >10 experimental points from 1 mM in DMSO, is added and the mixture is incubated for 15 minutes at room temperature. The reaction is started with the addition of 10 μL of Substrate Mix (12 uM NADPH, 3.4 mM alpha-ketoglutarate in Assay Buffer) and the mixture is incubated for 60 minutes at room temperature. The reaction is terminated with the addition of 5 μl of Detection Buffer (100 μg/mL diaphorase, 30 μM resazurin, in IX Assay Buffer), and is incubated for 15 minute before reading on a ViewLux as platereader at Ex544/Em590.
Compounds are assayed for their activity against IDH2^R172K following the same assay as above with the following modifications: IDH2^R172K and alpha-ketoglutarate final concentrations in the Assay Buffer is 16 nM and 0.55 mM, respectively.

Assay [1] deals with T3, IDH1^R132H homodimer enzyme (Homo sapiens, UniProt O75874, R132H).
T3 construct: purchased not specified
Briefly: NADPH depletion assay, IDH1 R132H. The format is biochemical. The procedure, abridged:
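IDH1 R132H enzyme (8 nM as diluted) in Tris-HCl pH 7.6 with 10 mM MgCl2, 0.001% Triton X-100 and 4 mM β-mercaptoethanol is preincubated 15 min at RT with compound. Substrate mix (12 uM NADPH, 3.4 mM α-ketoglutarate) is added for 60 min; remaining NAD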

Structures are written as SMILES.

T3 sequence (O75874 whole entry R132H): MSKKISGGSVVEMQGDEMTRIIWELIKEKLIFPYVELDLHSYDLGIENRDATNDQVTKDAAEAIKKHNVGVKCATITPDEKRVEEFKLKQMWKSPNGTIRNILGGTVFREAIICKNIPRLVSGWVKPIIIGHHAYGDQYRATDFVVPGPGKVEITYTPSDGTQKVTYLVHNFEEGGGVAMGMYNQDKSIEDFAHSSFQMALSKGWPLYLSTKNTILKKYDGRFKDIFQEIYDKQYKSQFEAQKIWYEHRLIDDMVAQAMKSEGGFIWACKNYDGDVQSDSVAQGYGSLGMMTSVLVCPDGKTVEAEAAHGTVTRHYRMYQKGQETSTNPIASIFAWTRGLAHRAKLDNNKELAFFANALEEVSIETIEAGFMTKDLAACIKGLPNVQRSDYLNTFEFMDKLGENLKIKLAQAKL
T1 sequence (O75874 whole entry R132C): as the sequence (O75874 whole entry R132H) above, with H132C counted along it

Consider `CC[C@H](c1ccc([C@H](C)Nc2ncc3ccc(=O)n(C(C)C)c3n2)cc1)N1CCN(C(=O)CCO)CC1` [cpd 243], for which the values for the IC50 against IDH1^R132C and with HT-1080 (IDH1^R132C) were 20 nM and 38 nM, respectively.
With `C=CC(=O)N1CCN([C@@H](CC2CC2)c2ccc([C@H](C)Nc3cc4c(ccc(=O)n4C(C)C)cn3)cc2)CC1` [cpd 251, 7-{[(1S)-1-{4-[(1S)-1-(4-acryloylpiperazin-1-yl)-2-cyclopropylethyl]phenyl}ethyl]amino}-1-(propan-2-yl)-1,6-naphthyridin-2(1H)-one], the IC50 (usually the concentration that gives 50% inhibition) at IDH1^R132C stood at 2 nM; in the assay with HT-1080 (IDH1^R132C), 2.3 nM.
Regarding `CCCn1c(=O)ccc2cnc(N[C@@H](C)c3ccc(CN4CCC(F)(F)CC4)cc3)nc21` [cpd 101, 2-{[(1S)-1-{4-[(4,4-difluoropiperidin-1-yl)methyl]phenyl}ethyl]amino}-8-propylpyrido[2,3-d]pyrimidin-7(8H)-one], the IC50 against IDH1^R132C stood at 271 nM; at IDH2^R172K, 2670 nM; in assay [1], 575 nM.
`CC(C)[C@H](C)n1c(=O)ccc2cnc(N[C@@H](C)c3ccc(OC4CCN(C(=O)OCc5ccccc5)CC4)cc3)nc21` [cpd 146, 4-(4-{(S)-1-[8-((S)-1,2-Dimethyl-propyl)-7-oxo-7,8-dihydro-pyrido[2,3-d]pyrimidin-2-ylamino]-ethyl}-phenoxy)-piperidine-1-carboxylic acid benzyl ester]: the figures for the IC50 (on IDH1^R132C; at IDH2^R172K; in assay [1]) were 16 nM, 1420 nM and 59 nM, respectively.
As to `C[C@H](Nc1ncc2ccc(=O)n(CC3CC3)c2n1)c1ccc(Cl)cc1` [cpd 20, 2-{[(1S)-1-(4-chlorophenyl)ethyl]amino}-8-(cyclopropylmethyl)pyrido[2,3-d]pyrimidin-7(8H)-one], the IC50 stood at 332 nM against IDH1^R132C, 5020 nM at IDH2^R172K and 740 nM in assay [1].
`C[C@H](Nc1ncc2ccc(=O)n(CC(C)(C)C)c2n1)c1ccc(OC2CCN(C(=O)OC(C)(C)C)CC2)cc1` [cpd 154, 4-(4-{(S)-1-[8-(2,2-Dimethyl-propyl)-7-oxo-7,8-dihydro-pyrido[2,3-d]pyrimidin-2-ylamino]-ethyl}-phenoxy)-piperidine-1-carboxylic acid tert-butyl ester]: the IC50 against IDH1^R132C is 79 nM; on IDH2^R172K it was 5380 nM; in assay [1], 199 nM.
Take `CCn1c(=O)ccc2cnc(N[C@@H](C)c3ccc(Cl)cc3)nc21` [cpd 14, 2-{[(1S)-1-(4-chlorophenyl)ethyl]amino}-8-ethylpyrido[2,3-d]pyrimidin-7(8H)-one]: the IC50 against IDH1^R132C was determined as 850 nM; against IDH2^R172K it was 5730 nM; in assay [1], 1740 nM.
The like results for `CC(Nc1ncc2ccc(=O)n(Cc3ccccc3)c2n1)c1ccc(CN2CCC(F)(F)CC2)cc1` (stereo not shown) [cpd 96, 8-benzyl-2-[(1-{4-[(4,4-difluoropiperidin-1-yl)methyl]phenyl}ethyl)amino]pyrido[2,3-d]pyrimidin-7(8H)-one] were, in that order, 420 nM, 5020 nM and 801 nM.
In the case of `C[C@H](Nc1ncc2ccc(=O)n(Cc3cccc(O)c3)c2n1)c1ccc(Cl)cc1` [cpd 71, 2-{[(1S)-1-(4-chlorophenyl)ethyl]amino}-8-(3-hydroxybenzyl)pyrido[2,3-d]pyrimidin-7(8H)-one], the IC50 on IDH1^R132C was determined as 964 nM; against IDH2^R172K, 4830 nM; in assay [1], 2480 nM.
As to `C=CC(=O)N1CCC(NC(=O)c2ccc([C@H](C)Nc3ncc4ccc(=O)n(C(C)C)c4n3)cc2F)CC1` [cpd 192, N-(1-acryloylpiperidin-4-yl)-2-fluoro-4-[(1S)-1-{[7-oxo-8-(propan-2-yl)-7,8-dihydropyrido[2,3-d]pyrimidin-2-yl]amino}ethyl]benzamide], the half-inhibitory concentration (IC50) at IDH1^R132C turned out to be 252 nM; on IDH2^R172K, 645 nM; in assay [1], 227 nM.
In the case of `C=CC(=O)N1CCN(C(=O)c2ccc([C@H](C)Nc3ncc4ccc(=O)n(CC)c4n3)cc2)CC1` [cpd 190, 2-{[(1S)-1-{4-[(4-acryloylpiperazin-1-yl)carbonyl]phenyl}ethyl]amino}-8-ethylpyrido[2,3-d]pyrimidin-7(8H)-one], the figures for the IC50 (on IDH1^R132C; at IDH2^R172K; in assay [1]) were 3600 nM, 679 nM and 1940 nM, respectively.
On to `C[C@H](Nc1ncc2ccc(=O)n(CC(C)(C)C)c2n1)c1ccc(Br)cc1` [cpd 34, 2-{[(1S)-1-(4-bromophenyl)ethyl]amino}-8-(2,2-dimethylpropyl)pyrido[2,3-d]pyrimidin-7(8H)-one], for which the IC50 at IDH1^R132C stood at 135 nM; against IDH2^R172K, 3350 nM; in assay [1], 219 nM.
Consider `COc1cccc(Cn2c(=O)ccc3cnc(N[C@@H](C)c4ccc(Cl)cc4)nc32)c1` [cpd 30, 2-{[(1S)-1-(4-chlorophenyl)ethyl]amino}-8-(3-methoxybenzyl)pyrido[2,3-d]pyrimidin-7(8H)-one], for which the 50% inhibitory concentration (IC50) against IDH1^R132C amounted to 406 nM; against IDH2^R172K, 2520 nM; in assay [1], 1340 nM.
Regarding `C[C@H](Nc1ncc2ccc(=O)n(Cc3ccc(OC(F)(F)F)cc3)c2n1)c1ccc(Cl)cc1` [cpd 26, 2-{[(1S)-1-(4-chlorophenyl)ethyl]amino}-8-[4-(trifluoromethoxy)benzyl]pyrido[2,3-d]pyrimidin-7(8H)-one], the figures for the IC50 (on IDH1^R132C; on IDH2^R172K; in assay [1]) were 1260 nM, 2200 nM and 2360 nM, respectively.
As to `C[C@H](Nc1ncc2ccc(=O)n(Cc3c(F)cccc3F)c2n1)c1ccc(Cl)cc1` [cpd 31, 2-{[(1S)-1-(4-chlorophenyl)ethyl]amino}-8-(2,6-difluorobenzyl)pyrido[2,3-d]pyrimidin-7(8H)-one], the IC50 on IDH1^R132C was found to be 147 nM; at IDH2^R172K, 2200 nM; in assay [1], 323 nM.
Turning to `C[C@H](Nc1ncc2ccc(=O)n(CC(F)(F)F)c2n1)c1ccc(CN2CCC(F)(F)CC2)cc1` [cpd 106, 2-{[(1S)-1-{4-[(4,4-difluoropiperidin-1-yl)methyl]phenyl)ethyl]amino)-8-(2,2,2-trifluoroethyl)pyrido[2,3-d]pyrimidin-7(8H)-one], the results for the concentration for half-maximal inhibition (IC50) (on IDH1^R132C; against IDH2^R172K; in assay [1]) were 667 nM, 2910 nM and 1230 nM, respectively.
Turning to `C[C@H](Nc1ncc2ccc(=O)n(CC(C)(C)C)c2n1)c1ccc(CN2CCC(F)(F)CC2)cc1F` [cpd 152, 2-{[(1S)-1-{4-[(4,4-difluoropiperidin-1-yl)methyl]-2-fluorophenyl}ethyl]amino}-8-(2,2-dimethylpropyl)pyrido [2,3-d]pyrimidin-7(8H)-one], the IC50 at IDH1^R132C is 65 nM; against IDH2^R172K, 5620 nM; in assay [1], 158 nM.

Values taken from US12018023B2 (NERVIANO MEDICAL SCIENCES S.R.L., priority 2018, dated 2024).
